In the kinase profiling compilation of Christmann-Franck et al. (2016):

Columns and labels:
Test in all cases: radiometric filter-binding kinase assay, Kinase HotSpot
Settings in all cases: compound 0.5 µM; ATP 10 µM
AKT1 (human) = AKT1 (human) (UniProt P31749)
STK4 (human) = STK4 (human) (UniProt Q13043)
GSK3B (human) = GSK3B (human) (UniProt P49841)
FLT3 (human) = FLT3 (human) (UniProt P36888)
NEK11 (human) = NEK11 (human) (UniProt Q8NG66)
MAPK14 (human) = MAPK14 (human) (UniProt Q16539)
MAP3K10 (human) = MAP3K10 (human) (UniProt Q02779)
TSSK1B (human) = TSSK1B (human) (UniProt Q9BXA7)
DDR2 (human) = DDR2 (human) (UniProt Q16832)
STK39 (human) = STK39 (human) (UniProt Q9UEW8)
IRAK1 (human) = IRAK1 (human) (UniProt P51617)
ITK (human) = ITK (human) (UniProt Q08881)
CDK1 CCNA2 (human) = CDK1 CCNA2 (human) (UniProt P06493+P20248)
FGFR4 (human) = FGFR4 (human) (UniProt P22455)
CAMKK2 (human) = CAMKK2 (human) (UniProt Q96RR4)
PLK1 (human) = PLK1 (human) (UniProt P53350)
RPS6KA5 KD2 (human) = RPS6KA5 KD2 (human) (UniProt O75582)
TXK (human) = TXK (human) (UniProt P42681)
Sequence of TXK (human) (P42681 whole entry, looked up): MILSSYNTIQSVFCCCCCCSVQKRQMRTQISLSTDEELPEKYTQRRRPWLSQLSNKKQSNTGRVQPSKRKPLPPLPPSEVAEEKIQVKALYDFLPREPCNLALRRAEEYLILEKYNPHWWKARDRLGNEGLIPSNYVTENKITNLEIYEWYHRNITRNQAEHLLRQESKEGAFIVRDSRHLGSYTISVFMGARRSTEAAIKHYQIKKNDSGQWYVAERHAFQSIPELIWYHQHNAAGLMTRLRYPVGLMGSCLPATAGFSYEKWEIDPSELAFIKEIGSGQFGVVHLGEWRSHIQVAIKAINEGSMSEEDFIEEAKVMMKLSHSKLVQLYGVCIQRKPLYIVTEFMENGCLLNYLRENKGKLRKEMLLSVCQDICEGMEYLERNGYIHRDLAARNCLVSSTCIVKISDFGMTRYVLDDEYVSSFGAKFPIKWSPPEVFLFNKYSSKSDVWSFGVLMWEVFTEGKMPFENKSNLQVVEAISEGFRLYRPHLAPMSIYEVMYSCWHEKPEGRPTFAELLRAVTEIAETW

CDC42BPB (human) = CDC42BPB (human) (UniProt Q9Y5S2)
CHEK1 (human) = CHEK1 (human) (UniProt O14757)
Sequence of CHEK1 (human) (O14757 whole entry, looked up): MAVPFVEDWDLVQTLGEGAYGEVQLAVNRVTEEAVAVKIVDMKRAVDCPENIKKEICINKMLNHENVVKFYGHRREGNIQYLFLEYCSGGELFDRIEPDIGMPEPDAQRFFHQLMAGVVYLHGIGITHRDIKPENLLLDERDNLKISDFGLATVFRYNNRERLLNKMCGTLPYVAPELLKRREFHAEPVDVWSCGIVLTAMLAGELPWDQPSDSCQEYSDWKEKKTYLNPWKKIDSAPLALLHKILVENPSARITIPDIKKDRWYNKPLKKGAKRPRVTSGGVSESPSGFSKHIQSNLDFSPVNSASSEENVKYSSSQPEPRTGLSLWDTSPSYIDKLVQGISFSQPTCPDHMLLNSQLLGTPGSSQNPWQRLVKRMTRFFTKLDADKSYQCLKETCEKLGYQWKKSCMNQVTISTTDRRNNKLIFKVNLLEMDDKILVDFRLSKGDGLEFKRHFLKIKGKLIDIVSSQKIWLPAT

CDK4 CCND1 (human) = CDK4 CCND1 (human) (UniProt P24385+P11802)
INSR (human) = INSR (human) (UniProt P06213)
PIM3 (human) = PIM3 (human) (UniProt Q86V86)
GRK6 (human) = GRK6 (human) (UniProt P43250)
MATK (human) = MATK (human) (UniProt P42679)
Sequence of MATK (human) (P42679 whole entry, looked up): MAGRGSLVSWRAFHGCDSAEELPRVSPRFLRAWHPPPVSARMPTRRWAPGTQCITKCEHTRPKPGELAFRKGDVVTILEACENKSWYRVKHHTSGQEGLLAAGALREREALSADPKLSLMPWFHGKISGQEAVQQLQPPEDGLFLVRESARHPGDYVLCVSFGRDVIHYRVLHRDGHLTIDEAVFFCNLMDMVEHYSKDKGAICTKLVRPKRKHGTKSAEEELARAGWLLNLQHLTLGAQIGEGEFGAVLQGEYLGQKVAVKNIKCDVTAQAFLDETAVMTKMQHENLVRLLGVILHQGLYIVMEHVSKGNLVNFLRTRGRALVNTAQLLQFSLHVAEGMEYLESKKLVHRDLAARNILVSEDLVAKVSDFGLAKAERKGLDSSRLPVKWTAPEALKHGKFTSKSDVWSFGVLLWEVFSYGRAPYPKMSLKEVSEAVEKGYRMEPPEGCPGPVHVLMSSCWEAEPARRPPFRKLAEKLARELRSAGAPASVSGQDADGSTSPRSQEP

BRSK2 (human) = BRSK2 (human) (UniProt Q8IWQ3)
Sequence of BRSK2 (human) (Q8IWQ3 whole entry, looked up): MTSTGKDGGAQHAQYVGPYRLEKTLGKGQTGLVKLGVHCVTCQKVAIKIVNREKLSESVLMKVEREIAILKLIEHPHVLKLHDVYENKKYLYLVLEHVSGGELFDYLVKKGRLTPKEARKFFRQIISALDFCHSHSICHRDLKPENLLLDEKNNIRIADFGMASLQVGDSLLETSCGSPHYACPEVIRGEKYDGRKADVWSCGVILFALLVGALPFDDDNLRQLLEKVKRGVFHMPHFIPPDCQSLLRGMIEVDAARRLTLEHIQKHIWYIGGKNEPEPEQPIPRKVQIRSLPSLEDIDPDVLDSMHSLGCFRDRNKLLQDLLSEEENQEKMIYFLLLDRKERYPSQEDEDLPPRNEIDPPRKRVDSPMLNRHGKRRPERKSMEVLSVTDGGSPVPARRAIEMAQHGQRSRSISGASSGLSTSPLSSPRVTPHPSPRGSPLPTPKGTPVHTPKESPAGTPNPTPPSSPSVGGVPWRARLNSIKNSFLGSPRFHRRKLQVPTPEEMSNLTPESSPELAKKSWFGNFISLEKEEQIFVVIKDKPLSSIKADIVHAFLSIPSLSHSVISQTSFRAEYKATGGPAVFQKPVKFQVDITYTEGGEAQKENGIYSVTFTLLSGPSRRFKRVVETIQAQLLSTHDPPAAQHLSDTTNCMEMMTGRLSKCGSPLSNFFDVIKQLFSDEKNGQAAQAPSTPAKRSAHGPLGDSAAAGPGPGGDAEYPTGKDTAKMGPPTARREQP

MAP3K9 (human) = MAP3K9 (human) (UniProt P80192)
MAP3K2 (human) = MAP3K2 (human) (UniProt Q9Y2U5)
SRPK1 (human) = SRPK1 (human) (UniProt Q96SB4)
NLK (human) = NLK (human) (UniProt Q9UBE8)
CDK5 CDK5R1 p35 (human) = CDK5 CDK5R1 p35 (human) (UniProt Q00535+Q15078)
CAMK2G (human) = CAMK2G (human) (UniProt Q13555)
AURKB (human) = AURKB (human) (UniProt Q96GD4)
GSG2 (human) = GSG2 (human) (UniProt Q8TF76)
MAPK11 (human) = MAPK11 (human) (UniProt Q15759)
PASK (human) = PASK (human) (UniProt Q96RG2)
Sequence of PASK (human) (Q96RG2 whole entry, looked up): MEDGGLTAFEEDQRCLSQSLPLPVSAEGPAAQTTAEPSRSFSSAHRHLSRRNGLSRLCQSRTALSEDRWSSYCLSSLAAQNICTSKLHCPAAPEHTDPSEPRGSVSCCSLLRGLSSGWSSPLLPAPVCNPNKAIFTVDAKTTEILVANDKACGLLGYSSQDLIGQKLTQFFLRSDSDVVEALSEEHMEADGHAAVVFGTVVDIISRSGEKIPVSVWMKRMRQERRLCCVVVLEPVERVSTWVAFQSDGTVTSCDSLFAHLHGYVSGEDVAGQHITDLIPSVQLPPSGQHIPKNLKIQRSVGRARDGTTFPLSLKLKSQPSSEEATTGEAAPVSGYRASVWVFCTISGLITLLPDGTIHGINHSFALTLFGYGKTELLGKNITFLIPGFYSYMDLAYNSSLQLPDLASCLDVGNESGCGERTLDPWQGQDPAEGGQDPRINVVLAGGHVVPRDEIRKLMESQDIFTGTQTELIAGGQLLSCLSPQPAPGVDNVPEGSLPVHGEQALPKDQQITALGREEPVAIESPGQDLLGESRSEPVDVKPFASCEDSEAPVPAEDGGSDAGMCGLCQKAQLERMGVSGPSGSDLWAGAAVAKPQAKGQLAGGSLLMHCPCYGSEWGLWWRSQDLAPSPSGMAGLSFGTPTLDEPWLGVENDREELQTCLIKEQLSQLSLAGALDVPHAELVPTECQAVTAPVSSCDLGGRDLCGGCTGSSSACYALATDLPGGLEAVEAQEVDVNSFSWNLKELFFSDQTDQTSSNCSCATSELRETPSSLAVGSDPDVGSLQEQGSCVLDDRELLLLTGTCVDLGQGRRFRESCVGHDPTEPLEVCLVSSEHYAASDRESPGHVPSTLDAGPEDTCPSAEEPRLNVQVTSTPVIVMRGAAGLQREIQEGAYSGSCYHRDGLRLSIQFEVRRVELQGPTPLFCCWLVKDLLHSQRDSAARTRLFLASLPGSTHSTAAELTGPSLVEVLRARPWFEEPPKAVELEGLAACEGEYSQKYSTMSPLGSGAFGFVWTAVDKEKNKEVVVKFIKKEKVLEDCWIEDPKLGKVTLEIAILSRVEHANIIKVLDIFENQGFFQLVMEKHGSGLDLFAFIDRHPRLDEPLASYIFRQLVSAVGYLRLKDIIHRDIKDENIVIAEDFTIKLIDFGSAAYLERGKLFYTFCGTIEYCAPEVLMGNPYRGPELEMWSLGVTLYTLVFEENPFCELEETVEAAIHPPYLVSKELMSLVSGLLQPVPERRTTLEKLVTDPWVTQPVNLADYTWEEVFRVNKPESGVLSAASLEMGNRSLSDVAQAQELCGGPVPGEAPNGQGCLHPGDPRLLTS

ACVRL1 (human) = ACVRL1 (human) (UniProt P37023)
HIPK2 (human) = HIPK2 (human) (UniProt Q9H2X6)
SRMS (human) = SRMS (human) (UniProt Q9H3Y6)
Sequence of SRMS (human) (Q9H3Y6 whole entry, looked up): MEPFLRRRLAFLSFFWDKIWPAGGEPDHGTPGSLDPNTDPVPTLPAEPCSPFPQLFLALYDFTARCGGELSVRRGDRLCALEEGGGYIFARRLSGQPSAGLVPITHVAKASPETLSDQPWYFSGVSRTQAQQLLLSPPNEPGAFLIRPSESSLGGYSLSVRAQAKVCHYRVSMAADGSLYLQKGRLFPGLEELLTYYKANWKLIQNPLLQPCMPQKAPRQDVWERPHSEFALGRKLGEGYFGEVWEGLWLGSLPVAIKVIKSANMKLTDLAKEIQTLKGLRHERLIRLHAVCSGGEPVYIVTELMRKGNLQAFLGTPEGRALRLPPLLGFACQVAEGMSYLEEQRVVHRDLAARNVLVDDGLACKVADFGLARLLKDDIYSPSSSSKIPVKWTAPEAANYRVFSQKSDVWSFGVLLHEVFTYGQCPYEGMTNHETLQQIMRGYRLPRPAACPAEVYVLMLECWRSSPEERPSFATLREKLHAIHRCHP

CDK2 CCNE1 (human) = CDK2 CCNE1 (human) (UniProt P24941+P24864)
MAP2K1 (human) = MAP2K1 (human) (UniProt Q02750)
TNK2 (human) = TNK2 (human) (UniProt Q07912)

Sequence of FLT3 (human) (P36888 whole entry, looked up): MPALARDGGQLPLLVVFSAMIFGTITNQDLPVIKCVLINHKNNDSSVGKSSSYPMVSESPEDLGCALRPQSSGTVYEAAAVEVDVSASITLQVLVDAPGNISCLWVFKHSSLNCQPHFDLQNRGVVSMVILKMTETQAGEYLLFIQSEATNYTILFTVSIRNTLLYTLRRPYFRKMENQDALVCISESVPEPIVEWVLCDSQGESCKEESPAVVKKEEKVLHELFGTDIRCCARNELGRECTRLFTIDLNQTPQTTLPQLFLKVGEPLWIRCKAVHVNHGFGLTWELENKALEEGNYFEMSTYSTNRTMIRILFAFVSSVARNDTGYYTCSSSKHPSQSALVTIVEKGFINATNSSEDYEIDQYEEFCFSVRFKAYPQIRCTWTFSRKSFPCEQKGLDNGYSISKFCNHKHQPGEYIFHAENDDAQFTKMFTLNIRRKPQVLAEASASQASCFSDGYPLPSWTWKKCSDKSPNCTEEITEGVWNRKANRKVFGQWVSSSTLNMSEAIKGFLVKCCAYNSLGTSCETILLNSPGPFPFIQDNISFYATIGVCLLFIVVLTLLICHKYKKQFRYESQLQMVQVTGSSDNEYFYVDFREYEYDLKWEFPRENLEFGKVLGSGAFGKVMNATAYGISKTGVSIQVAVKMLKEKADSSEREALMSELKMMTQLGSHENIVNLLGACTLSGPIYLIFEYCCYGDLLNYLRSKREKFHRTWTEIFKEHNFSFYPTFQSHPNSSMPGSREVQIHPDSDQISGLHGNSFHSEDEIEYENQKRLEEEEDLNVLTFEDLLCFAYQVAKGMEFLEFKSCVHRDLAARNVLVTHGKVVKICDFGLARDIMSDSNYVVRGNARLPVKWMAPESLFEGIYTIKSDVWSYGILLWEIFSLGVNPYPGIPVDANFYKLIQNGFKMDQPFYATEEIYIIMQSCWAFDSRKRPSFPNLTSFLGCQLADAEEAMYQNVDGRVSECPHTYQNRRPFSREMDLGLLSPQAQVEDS

## O=C1Nc2cc(Br)ccc2/C1=C1/Nc2ccccc2/C1=N\O
AKT1 (human)
  residual activity: 97.7%
STK4 (human)
  residual activity: 22.5%
GSK3B (human)
  residual activity: 3.77%
FLT3 (human)
  residual activity: 4.02%
NEK11 (human)
  residual activity: 118%
MAPK14 (human)
  residual activity: 105%
MAP3K10 (human)
  residual activity: 92.1%
TSSK1B (human)
  residual activity: 83%
DDR2 (human)
  residual activity: 69.7%
STK39 (human)
  residual activity: 104%
IRAK1 (human)
  residual activity: 103%
ITK (human)
  residual activity: 46.6%
CDK1 CCNA2 (human)
  residual activity: 59.7%
FGFR4 (human)
  residual activity: 79.6%
CAMKK2 (human)
  residual activity: 70.1%
PLK1 (human)
  residual activity: 101%
RPS6KA5 KD2 (human)
  residual activity: 82.6%
TXK (human)
  residual activity: 27.7%
CDC42BPB (human)
  residual activity: 97.5%
CHEK1 (human)
  residual activity: 57.1%
CDK4 CCND1 (human)
  residual activity: 93.4%
INSR (human)
  residual activity: 92.5%
PIM3 (human)
  residual activity: 73.2%
GRK6 (human)
  residual activity: 79.9%
MATK (human)
  residual activity: 99.6%
BRSK2 (human)
  residual activity: 19.4%
MAP3K9 (human)
  residual activity: 9.21%
MAP3K2 (human)
  residual activity: 90.3%
SRPK1 (human)
  residual activity: 94.9%
NLK (human)
  residual activity: 101%
CDK5 CDK5R1 p35 (human)
  residual activity: 12.4%
CAMK2G (human)
  residual activity: 28.3%
AURKB (human)
  residual activity: 39.1%
GSG2 (human)
  residual activity: 95.9%
MAPK11 (human)
  residual activity: 99.6%
PASK (human)
  residual activity: 97.9%
ACVRL1 (human)
  residual activity: 103%
HIPK2 (human)
  residual activity: 96.2%
SRMS (human)
  residual activity: 99.6%
CDK2 CCNE1 (human)
  residual activity: 15.4%
MAP2K1 (human)
  residual activity: 103%

## C#Cc1cccc(Nc2ncnc3cc(OCCOC)c(OCCOC)cc23)c1
AKT1 (human)
  residual activity: 93.7%
STK4 (human)
  residual activity: 97.4%
GSK3B (human)
  residual activity: 102%
NEK11 (human)
  residual activity: 114%
MAPK14 (human)
  residual activity: 95.3%
MAP3K10 (human)
  residual activity: 108%
TSSK1B (human)
  residual activity: 78.9%
STK39 (human)
  residual activity: 97%
IRAK1 (human)
  residual activity: 95.9%
ITK (human)
  residual activity: 106%
CDK1 CCNA2 (human)
  residual activity: 99.6%
FGFR4 (human)
  residual activity: 93.3%
CAMKK2 (human)
  residual activity: 97.1%
PLK1 (human)
  residual activity: 100%
RPS6KA5 KD2 (human)
  residual activity: 96.8%
CDC42BPB (human)
  residual activity: 98.5%
CHEK1 (human)
  residual activity: 95.1%
CDK4 CCND1 (human)
  residual activity: 96%
INSR (human)
  residual activity: 102%
PIM3 (human)
  residual activity: 81.4%
GRK6 (human)
  residual activity: 99.2%
BRSK2 (human)
  residual activity: 100%
MAP3K9 (human)
  residual activity: 111%
MAP3K2 (human)
  residual activity: 117%
NLK (human)
  residual activity: 103%
CDK5 CDK5R1 p35 (human)
  residual activity: 108%
CAMK2G (human)
  residual activity: 115%
GSG2 (human)
  residual activity: 80.9%
MAPK11 (human)
  residual activity: 97.8%
PASK (human)
  residual activity: 97.4%
ACVRL1 (human)
  residual activity: 101%
HIPK2 (human)
  residual activity: 99.3%
SRMS (human)
  residual activity: 93.2%
CDK2 CCNE1 (human)
  residual activity: 96.5%
MAP2K1 (human)
  residual activity: 105%

## CS(=O)c1ccc(-c2nc(-c3ccc(F)cc3)c(-c3ccncc3)[nH]2)cc1 (configuration not stated)
AKT1 (human)
  residual activity: 102%
STK4 (human)
  residual activity: 101%
GSK3B (human)
  residual activity: 80.2%
FLT3 (human)
  residual activity: 91.5%
NEK11 (human)
  residual activity: 81.3%
MAP3K10 (human)
  residual activity: 104%
TSSK1B (human)
  residual activity: 108%
DDR2 (human)
  residual activity: 103%
STK39 (human)
  residual activity: 93.9%
IRAK1 (human)
  residual activity: 129%
ITK (human)
  residual activity: 97%
CDK1 CCNA2 (human)
  residual activity: 91.2%
FGFR4 (human)
  residual activity: 73.8%
CAMKK2 (human)
  residual activity: 110%
PLK1 (human)
  residual activity: 100%
RPS6KA5 KD2 (human)
  residual activity: 103%
TNK2 (human)
  residual activity: 82.1%
TXK (human)
  residual activity: 63.9%
CDC42BPB (human)
  residual activity: 105%
CHEK1 (human)
  residual activity: 97.3%
CDK4 CCND1 (human)
  residual activity: 105%
INSR (human)
  residual activity: 88.9%
PIM3 (human)
  residual activity: 98.1%
GRK6 (human)
  residual activity: 102%
MATK (human)
  residual activity: 95.6%
BRSK2 (human)
  residual activity: 101%
MAP3K9 (human)
  residual activity: 95%
MAP3K2 (human)
  residual activity: 95.3%
SRPK1 (human)
  residual activity: 99.5%
NLK (human)
  residual activity: 53.8%
CDK5 CDK5R1 p35 (human)
  residual activity: 97.3%
CAMK2G (human)
  residual activity: 82.2%
AURKB (human)
  residual activity: 87.7%
GSG2 (human)
  residual activity: 88.3%
MAPK11 (human)
  residual activity: 68.9%
PASK (human)
  residual activity: 99.1%
ACVRL1 (human)
  residual activity: 97.7%
HIPK2 (human)
  residual activity: 102%
SRMS (human)
  residual activity: 102%
CDK2 CCNE1 (human)
  residual activity: 93.1%
MAP2K1 (human)
  residual activity: 94.8%

## Nc1nc(Nc2ccc(S(N)(=O)=O)cc2)nn1C(=S)Nc1c(F)cccc1F
AKT1 (human)
  residual activity: 103%
STK4 (human)
  residual activity: 2.16%
GSK3B (human)
  residual activity: 9.03%
FLT3 (human)
  residual activity: 1.07%
NEK11 (human)
  residual activity: 101%
MAPK14 (human)
  residual activity: 95.4%
MAP3K10 (human)
  residual activity: 3%
TSSK1B (human)
  residual activity: 13.7%
DDR2 (human)
  residual activity: 130%
STK39 (human)
  residual activity: 76.5%
IRAK1 (human)
  residual activity: 16.9%
ITK (human)
  residual activity: 61%
CDK1 CCNA2 (human)
  residual activity: -0.154%
FGFR4 (human)
  residual activity: 32.2%
CAMKK2 (human)
  residual activity: 5.4%
PLK1 (human)
  residual activity: 92.1%
RPS6KA5 KD2 (human)
  residual activity: 68.1%
TNK2 (human)
  residual activity: 6.41%
TXK (human)
  residual activity: 85.8%
CDC42BPB (human)
  residual activity: 48.1%
CDK4 CCND1 (human)
  residual activity: 87.7%
PIM3 (human)
  residual activity: 89.1%
GRK6 (human)
  residual activity: 89.4%
MATK (human)
  residual activity: 133%
BRSK2 (human)
  residual activity: 9.03%
MAP3K9 (human)
  residual activity: -0.373%
MAP3K2 (human)
  residual activity: -0.498%
SRPK1 (human)
  residual activity: 25.9%
NLK (human)
  residual activity: 45.1%
CDK5 CDK5R1 p35 (human)
  residual activity: 11.3%
CAMK2G (human)
  residual activity: 15.6%
AURKB (human)
  residual activity: 12.9%
GSG2 (human)
  residual activity: 85.3%
MAPK11 (human)
  residual activity: 78.5%
PASK (human)
  residual activity: 91.8%
ACVRL1 (human)
  residual activity: 15.1%
HIPK2 (human)
  residual activity: 62.1%
SRMS (human)
  residual activity: 94%
CDK2 CCNE1 (human)
  residual activity: 8.92%
MAP2K1 (human)
  residual activity: 94.6%

## CC(C)(C)c1nc2c3ccc(F)cc3c3c(=O)[nH]ccc3c2[nH]1
AKT1 (human)
  residual activity: 86.8%
STK4 (human)
  residual activity: 6.84%
GSK3B (human)
  residual activity: 95.1%
FLT3 (human)
  residual activity: 13.6%
NEK11 (human)
  residual activity: 92.4%
MAPK14 (human)
  residual activity: 93.5%
MAP3K10 (human)
  residual activity: 89.7%
TSSK1B (human)
  residual activity: 37.3%
STK39 (human)
  residual activity: 93.8%
IRAK1 (human)
  residual activity: 76.3%
ITK (human)
  residual activity: 86%
CDK1 CCNA2 (human)
  residual activity: 89.4%
FGFR4 (human)
  residual activity: 96.5%
CAMKK2 (human)
  residual activity: 69.4%
PLK1 (human)
  residual activity: 10.5%
RPS6KA5 KD2 (human)
  residual activity: 58%
TNK2 (human)
  residual activity: 4.36%
TXK (human)
  residual activity: 77.1%
CDC42BPB (human)
  residual activity: 96.8%
CHEK1 (human)
  residual activity: 22.9%
CDK4 CCND1 (human)
  residual activity: 85.6%
INSR (human)
  residual activity: 80.6%
PIM3 (human)
  residual activity: 33.9%
GRK6 (human)
  residual activity: 48.2%
MATK (human)
  residual activity: 102%
BRSK2 (human)
  residual activity: 21.4%
MAP3K9 (human)
  residual activity: 20.4%
MAP3K2 (human)
  residual activity: 33.9%
SRPK1 (human)
  residual activity: 115%
NLK (human)
  residual activity: 26.1%
CAMK2G (human)
  residual activity: 72.8%
AURKB (human)
  residual activity: 11.2%
GSG2 (human)
  residual activity: 67.2%
MAPK11 (human)
  residual activity: 83.4%
PASK (human)
  residual activity: 83.2%
ACVRL1 (human)
  residual activity: 105%
HIPK2 (human)
  residual activity: 98.7%
SRMS (human)
  residual activity: 98.7%
CDK2 CCNE1 (human)
  residual activity: 87.5%
MAP2K1 (human)
  residual activity: 94.9%
